Measurements: patent US20240245666A1, “DOSING REGIMENS” (Novartis AG, priority 2021, published 2024)
Several values for one entry are separate records, joined by “and”; a condition that tells them apart may be missing. Equal entries are not always repeated. Where two headings read alike, the source gives them in different places.

Tests used:
[1] = In vitro flux study: dissolution and permeation of asciminib film-coated tablets through an artificial lipid membrane; assay type: in vitro ADME; settings: 2×20 mg film-coated tablets; for flux rate (permeation through an artificial lipid membrane): 37° C.
Experimental: The donor compartment of a United States Pharmacopeia, Method II (USP II) dissolution apparatus (Distek corporation; New Jersey, United States) was filled with 900 mL maleate buffer containing either low concentrations of bile salts (imitating fasted conditions; Fasted State Simulated Intestinal Fluid [FaSSIF]; 3 mM taurocholate/taurodeoxycholate, 0.2 mM phospholipids/lysophospholipids, pH 5.8), high concentrations of bile salts (imitating fed intestinal conditions; Fed State Simulated Intestinal Fluid [FeSSIF]; 10 mM taurocholate/taurodeoxycholate, 2 mM phospholipids/lysophospholipids, 0.8/5.0 mM oleate/glycerol monoleate, pH 6.0), or no bile salts (control; pH 6.5). […] Two replicates per condition were performed.

[2] = single agent, patients with CML; cited from earlier work
[3] = initial asciminib tablet formulations, cited from earlier work
[4] = clinical; settings: human, in vivo, 40 mg
[5] = clinical; settings: human, plasma, oral, 40 mg
[6] = Phase I study, FE study group: asciminib under fasted, low-fat meal and high-fat meal conditions (PK and safety); settings: for asciminib AUCinf, Gmean / asciminib AUCinf, Median / asciminib AUCinf, adjusted Gmean / asciminib AUClast, Gmean / asciminib AUClast, Median / asciminib AUClast, adjusted Gmean / asciminib Cmax, Gmean / asciminib Cmax, Median / asciminib Cmax, Range / asciminib Cmax, adjusted Gmean / asciminib T1/2, Range / asciminib Tmax, Range / reduction in asciminib exposure (AUCinf; AUCinf and AUClast) compared with fasted conditions / asciminib Tmax, Median: single 40 mg;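 note: healthy volunteers, open-label single-center study, PK parameters from individual plasma concentration-time profiles by non-compartmental analysis, 7-day washout between treatment periods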
[7] = Phase I study, DDI study group: asciminib with or without imatinib at steady state under low-fat meal conditions (PK and safety); settings: imatinib 400 mg qd steady state alone (Day 12)
[8] = control buffer, no bile salts (pH 6.5)
[9] = fasted state buffer (FaSSIF, pH 5.8)
[10] = fed state buffer (FeSSIF, pH 6.0)

O=C(Nc1ccc(OC(F)(F)Cl)cc1)c1cnc(N2CC[C@@H](O)C2)c(-c2ccn[nH]2)c1 [asciminib, N-[4-(Chlorodifluoromethoxy)phenyl]-6-[(3R)-3-hydroxypyrrolidin-1-yl]-5-(1H-pyrazol-5-yl)pyridine-3-carboxamide]
dissolution [1, 8]: 82.3%
flux rate (permeation through an artificial lipid membrane) [1, 8]: 2.66 µg/min
dissolution [1, 9]: 93.1%
flux rate (permeation through an artificial lipid membrane) [1, 9]: 1.45 µg/min
dissolution [1, 10]: 94.2%
flux rate (permeation through an artificial lipid membrane) [1, 10]: 0.44 µg/min
maximum tolerated dose (not reached) [2]: > 200 mg twice daily
decreased asciminib exposure compared with the fasted state ([3]; high-fat meal): ~65% and 63-64%
decreased asciminib exposure compared with the fasted state ([3]; low-fat meal): ~30% and 30-31%
clearance [4]: 185 mL/min
half-life [5]: 13.5 h
participants with at least 1 AE ([6]; FE group, 11 of 24 participants): 45.8%
participants with oropharyngeal pain and rhinitis (each) ([6]; FE group, each n=2): 8.3%
asciminib AUCinf, Gmean ([6]; fasted, n=24): 5830 ng·h/mL
asciminib AUCinf, Median ([6]; fasted, n=24): 5890 ng·h/mL
asciminib AUCinf, adjusted Gmean ([6]; fasted, n=24): 5830 ng·h/mL
asciminib AUClast, Gmean ([6]; fasted, n=24): 5730 ng·h/mL
asciminib AUClast, Median ([6]; fasted, n=24): 5820 ng·h/mL
asciminib AUClast, adjusted Gmean ([6]; fasted, n=24): 5730 ng·h/mL
asciminib Cmax, Gmean ([6]; fasted, n=24): 550 ng/mL
asciminib Cmax, Median ([6]; fasted, n=24): 572 ng/mL
asciminib Cmax, Range ([6]; fasted, n=24): 280 to 1050 ng/mL
asciminib Cmax, adjusted Gmean ([6]; fasted, n=24): 550 ng/mL
asciminib T1/2, Range ([6]; fasted, n=24): 9.18 to 19.1 h
asciminib Tmax, Range ([6]; fasted, n=24): 1.00 to 5.00 h
reduction in asciminib exposure (AUCinf; AUCinf and AUClast) compared with fasted conditions ([6]; high-fat meal): 62.3% and 62-63%
asciminib AUCinf, Gmean ([6]; high-fat meal, n=24): 2200 ng·h/mL
asciminib AUCinf, Median ([6]; high-fat meal, n=24): 2040 ng·h/mL
asciminib AUCinf, adjusted Gmean ([6]; high-fat meal, n=24): 2200 ng·h/mL
asciminib AUClast, Gmean ([6]; high-fat meal, n=24): 2130 ng·h/mL
asciminib AUClast, Median ([6]; high-fat meal, n=24): 1960 ng·h/mL
asciminib AUClast, adjusted Gmean ([6]; high-fat meal, n=24): 2130 ng·h/mL
asciminib Cmax, Gmean ([6]; high-fat meal, n=24): 175 ng/mL
asciminib Cmax, Median ([6]; high-fat meal, n=24): 159 ng/mL
asciminib Cmax, Range ([6]; high-fat meal, n=24): 82.2 to 423 ng/mL
asciminib Cmax, adjusted Gmean ([6]; high-fat meal, n=24): 175 ng/mL
asciminib T1/2, Range ([6]; high-fat meal, n=24): 8.81 to 18.1 h
asciminib Tmax, Median ([6]; high-fat meal, n=24): 4.01 h
asciminib Tmax, Range ([6]; high-fat meal, n=24): 1.00 to 8.00 h
reduction in asciminib exposure (AUCinf; AUCinf and AUClast) compared with fasted conditions ([6]; low-fat meal): 30%
asciminib AUCinf, Gmean ([6]; low-fat meal, n=23): 4130 ng·h/mL
asciminib AUCinf, Median ([6]; low-fat meal, n=23): 4300 ng·h/mL
asciminib AUCinf, adjusted Gmean ([6]; low-fat meal, n=23): 4080 ng·h/mL
asciminib AUClast, Gmean ([6]; low-fat meal, n=23): 4060 ng·h/mL
asciminib AUClast, Median ([6]; low-fat meal, n=23): 4270 ng·h/mL
asciminib AUClast, adjusted Gmean ([6]; low-fat meal, n=23): 4010 ng·h/mL
asciminib Cmax, Gmean ([6]; low-fat meal, n=23): 363 ng/mL
asciminib Cmax, Median ([6]; low-fat meal, n=23): 365 ng/mL
asciminib Cmax, Range ([6]; low-fat meal, n=23): 172 to 709 ng/mL
asciminib Cmax, adjusted Gmean ([6]; low-fat meal, n=23): 359 ng/mL
asciminib T1/2, Range ([6]; low-fat meal, n=23): 9.70 to 17.7 h
asciminib Tmax, Median ([6]; low-fat meal, n=23): 3.00 h
asciminib Tmax, Range ([6]; low-fat meal, n=23): 0.997 to 5.00 h

Cc1ccc(NC(=O)c2ccc(CN3CCN(C)CC3)cc2)cc1Nc1nccc(-c2cccnc2)n1 [imatinib]
imatinib AUC0-24h, Gmean [7]: 33,600 ng×h/mL
imatinib AUClast, Gmean [7]: 33,600 ng×h/mL
